# Experimental data taken from a melting point compilation (Tetko et al.; mined from patent text by program, amines drawn as free bases though some values may be those of a salt).
row,melting point,Compound
1,276 to 278 °C,COc1ccc(-n2cc(C#N)c(=O)[nH]c2=O)c(C)c1
2,315 to 317 °C,O=c1[nH]c2cc(Cl)cc([N+](=O)[O-])c2[nH]c1=O
3,169 to 173 °C,CC(C)C(O)CCC(C)C1CCC2C3CC(O)C4CC(O)CCC4(C)C3CCC12C (stereo not drawn)
4,226 to 228 °C,O=C1Nc2cc(F)c(F)cc2N2CCN(C(=O)OCc3ccccc3)CC12 (stereo not drawn)
5,80 to 82 °C,O=C(CCC12CCC(=O)N1C(=O)CC2)OCc1ccccc1
6,262 to 265 °C,COc1ccccc1C(CO)c1c[nH]c2c(=O)[nH]c(N)nc12 (stereo not drawn)
7,260 to 262 °C,CC(C)(C)NC(=O)NCc1ccc2c(c1)CN(C1CCC(=O)NC1=O)C2=O (stereo not drawn)
8,62 to 63 °C,CCCCNc1c(C(=O)OCC)c(C)nc2c1ncn2C
9,165 to 166 °C,CCOc1ccc(Cn2cnc3c(-c4ccco4)ncnc32)cc1
10,113 to 114 °C,CCOC(=O)c1c(-c2ccccc2C)c2cc(Cl)ccc2n(C)c1=O
11,194 to 198 °C,CC(=O)Oc1ccc2c3c(cc(Cl)c2c1)-c1cc(F)c(OC(C)=O)cc1CO3
12,116 to 119 °C,CN(C)C=Nc1nc(Cl)c(N=CN(C)C)c(Cl)n1
13,190 to 192 °C,CC(C)c1cc(C(C)C)n(-c2ccc(NC(=O)c3cccnc3)cc2)n1
14,148 to 150 °C,CC(C)Oc1cccc2oc(C(=O)O)cc12
15,113 to 117 °C,COc1cccc(S(=O)(=O)c2cccc(F)c2C#N)c1
16,139 to 140 °C,Cc1cc(Oc2ccc(Cl)c3c2CCCC3)c(Cl)cc1[N+](=O)[O-]
17,87 to 88 °C,COc1ccc(CCNC(C)=O)cc1OC1CCCC1
18,160 to 162 °C,N#CC=C1CCN(c2ccc(N3C[C@H](CNC(=O)CBr)OC3=O)cc2F)CC1
19,120 to 122 °C,O=C(CO)NCCCCCCCCCCNC(=O)CO
20,86 to 88.5 °C,COC(=O)c1cc(Cl)ccc1-n1cnnc1C
21,154 to 156 °C,COc1ccc([C@@H]2Sc3cc(Cc4ccc(F)cc4)ccc3N(CCN(C)C)C(=O)[C@@H]2OC(C)=O)cc1
22,283 to 285 °C,COc1ccc(N2CCOCC2)c2sc(-c3nc4ccccc4n3C)nc12
23,208 to 210 °C,CCCCNS(=O)(=O)CC(O)C(O)C(CC1CCCCC1)NC(=O)C(Cc1c[nH]cn1)NS(=O)(=O)CCc1ccccc1 (stereo not drawn)
24,223 to 226 °C,COc1ccc(-c2ccccc2)cc1NC(=S)c1ncc[nH]1

row,melting point,Compound
1,80 to 82 °C,Cc1ccnc(-c2cccc([N+](=O)[O-])c2)c1
2,135 to 137 °C,Clc1ccc(-c2c(Cc3nc4ccccc4s3)cnn2-c2ccccc2)cc1
3,283 to 285 °C,CC(C)(C)c1ccc(CCN2C(=O)COc3ccc(C=C4SC(=S)NC4=O)cc32)cc1
4,240 to 244 °C,Cc1c[nH]c2c(=O)n(CC(=O)NC3CC(=O)OC3OCc3ccccc3)cnc12 (stereo not drawn)
5,158 to 160 °C,c1nnc2c3c(c(NCCCCN4CCCC4)nn12)CCCC3
6,135 to 136 °C,CC(=O)c1ccc(N)c2c1OCCO2
7,192 to 193 °C,COc1cc(CC(C)(C)NC(=O)c2ccc(=O)n(-c3ccc4cc(C)ccc4n3)c2)cc2c1OC(C)(C)C2
8,140 to 142 °C,NC(=S)Nc1ccccc1-c1ccc(F)cc1
9,170 to 173 °C,CCOC(=O)c1cn(-c2nnc(C)s2)c2cc(F)c(F)cc2c1=O
10,97 to 99 °C,Fc1cc(Cl)ccc1-n1nc2c(c1Cl)CSCC2
11,82 to 83 °C,CCOC(=O)C(Br)=NNc1ccccc1
12,242 to 244 °C,Cc1nc2cc3c(cc2o1)C1(CO3)C(=O)Nc2ccccc21 (stereo not drawn)
13,83 to 85 °C,COc1ccc(C=CCN2CCC3(CC2)CN(C(=O)c2ccnc(Cl)c2)c2ccc(Cl)cc23)cc1
14,65 to 73 °C,COc1cccc(CNc2nccc(-c3cc(N4CCN(CCCN5CCOCC5)CC4)c4cc(OC)ccc4c3)n2)c1
15,147 to 148 °C,O=C(c1ccc(F)c(Br)c1)N1CCC(Br)C(c2ccccc2)=N1 (stereo not drawn)
16,> 300 °C,O=c1c2ccc(O)cc2oc2c1oc1c3ccccc3ccc21
17,190 to 192 °C,CNC(=O)NS(=O)(=O)c1ccccc1C=CC(F)(F)F
18,160 to 162 °C,COc1ccc2c(Cc3c(Cl)cncc3Cl)nnc(N3CCN(C)CC3)c2c1
19,195 to 196 °C,Cc1ccnc(C(=O)c2[nH]c3cc(Cl)ccc3c2N)c1
20,193 to 200 °C,COc1ccc(CC2CCC3NC(=O)C(CO)CC3C2)cc1 (stereo not drawn)
21,156 to 159 °C,O=c1c2ccccc2[nH]n1-c1ccccc1F
22,199 to 200 °C,CCc1cc2c(ccc(=O)n2Cc2ccc(-c3ccccc3S(N)(=O)=O)cc2)c(CC)n1
23,54 to 56 °C,O=C(CCCO)NCCO
24,193 to 195 °C,CCOC(=O)c1ncn(-c2nc(C)cs2)c1S

row,melting point,Compound
1,> 250 °C,O=C(O)Cn1c(=O)c(=O)[nH]c2cc([N+](=O)[O-])c(-n3ccc(CN4CCCCC4)c3)cc21
2,134 to 136 °C,BrCCCCCc1nc2ccccc2[nH]1
3,64 to 69 °C,O=C(O)CSc1nc(Cl)cc(NCc2ccc(Cl)c(Cl)c2)n1
4,110 to 111 °C,CCCNC(=N)Nc1nc2ccc(OC(F)(F)F)cc2s1
5,88.6 to 91.1 °C,CC(C)(Br)C(=O)NOCc1ccccc1
6,143 to 145 °C,CCN(CC)CCOC1=C(c2ccccc2)CN(Cc2ccc(Cl)cc2)C1=O
7,86 to 88 °C,Nc1ccc(C2=CCOCC2)c(F)c1
8,120 to 121 °C,CCOc1nn(-c2ccc(C(F)(F)F)cn2)cc1CCCOc1cccc(OC(C)(C)C(=O)O)c1
9,172 to 174 °C,CC(=O)Oc1ccc(Cn2ncc(-c3ccc(S(C)(=O)=O)cc3)c(-c3ccc(F)cc3)c2=O)cc1
10,208 to 211 °C,COc1ccc(N2CCN(c3c(C)c(C)c4c(c3C)C(c3ccc(C(F)(F)F)cc3)C(C)(C)O4)CC2)cc1 (stereo not drawn)
11,179 to 180 °C,O=C(O)CCc1oc(-n2ccnc2-c2ccccc2)nc1-c1ccc(Cl)cc1
12,200 °C,O=C(NC(=O)c1c(F)cccc1Cl)Nc1ccc(C(F)(F)F)c(F)c1
13,137 to 138 °C,Cc1c(NC(=O)CC(C)(C)C)cc2c(c1C)OC(C)(C)C2c1cccs1 (stereo not drawn)
14,90 °C,CCCCS(=O)(=O)N(Cc1ccc(-c2ccccc2-c2nnn[nH]2)cc1)[C@@H](C)C(=O)O
15,178 to 200 °C,O=C(CC1CCCCC1)Nc1c(Cl)ccc2nc(N3CC[C@H](NS(=O)(=O)C(F)(F)F)C3)ccc12
16,74 to 76 °C,Cc1ccc(OC(CCCCCc2ccc(Cl)cc2)C(=O)O)cc1 (stereo not drawn)
17,138 to 139 °C,Cc1cc(S(F)(F)(F)(F)F)ccc1C(=O)O
18,> 200 °C,N#CCNc1nc(N2CCc3ccccc3CC2)c(C#N)c(=O)[nH]1
19,265 to 273 °C,CC1CNc2nc3c(N)nc4ccccc4c3n21 (stereo not drawn)
20,152 to 153 °C,CC(C)OCCCNC(=O)c1n[nH]cc1NC(=O)c1ccccn1
21,108 to 110 °C,O=CC1=Cc2cc(-c3ccccc3)ccc2OC1
22,133 to 135 °C,O=C1N[C@H](c2ccco2)[C@@H]1O
23,128 to 130 °C,COc1ccc(S(=O)(=O)C(CC(=O)NO)Cc2ccc(OCc3ccccc3)cc2)cc1 (stereo not drawn)

row,Compound,melting point
1,Nc1ccc([N+](=O)[O-])cc1C(=O)c1ccccc1Cl,138 to 139 °C
2,CN1C(=O)[C@H](NC(=O)CNc2ccccc2)N=C(c2ccccc2)c2ccccc21,245 to 246 °C
